Patent publication US9242975B2, “Heterocyclic-substituted pyridyl compounds useful as kinase inhibitors” (Bristol-Myers Squibb Company, priority 2012, dated 2016)

Molecular target: IRAK4 (Homo sapiens (Human), UniProt Q9NWZ3)
Test: IRAK4 Inhibition Assay
Type: biochemical
Conditions: ATP 500 μM; FL-IPTSPITTTYFFFKKK peptide 1.5 μM; IRAK4 0.6 nM; 60 min at room temperature; Caliper LabChip 3000
Procedure: The assays were performed in U-bottom 384-well plates. The final assay volume was 30 μL prepared from 15 μL additions of enzyme and substrates (fluoresceinated peptide and ATP) and test compounds in assay buffer (20 mM HEPES pH 7.2, 10 mM MgCl2, 0.015% Brij35 and 4 mM DTT). The reaction was initiated by the combination of IRAK4 with substrates and test compounds. The reaction was incubated at room temperature for 60 min. and terminated by adding 45 μL of 35 mM EDTA to each sample. The reaction mixture was analyzed on the Caliper LabChip 3000 (Caliper, Hopkinton, Mass.) by electrophoretic separation of the fluorescent substrate and phosphorylated product. Inhibition data were calculated by comparison to no enzyme control reactions for 100% inhibition and vehicle-only reactions for 0% inhibition. The final concentrations of reagents in the assays are ATP, 500 μM; FL-IPTSPITTTYFFFKKK peptide 1.5 μM; IRAK4, 0.6 nM; and DMSO, 1.6%.

Chain of IRAK4 (Q9NWZ3 whole entry): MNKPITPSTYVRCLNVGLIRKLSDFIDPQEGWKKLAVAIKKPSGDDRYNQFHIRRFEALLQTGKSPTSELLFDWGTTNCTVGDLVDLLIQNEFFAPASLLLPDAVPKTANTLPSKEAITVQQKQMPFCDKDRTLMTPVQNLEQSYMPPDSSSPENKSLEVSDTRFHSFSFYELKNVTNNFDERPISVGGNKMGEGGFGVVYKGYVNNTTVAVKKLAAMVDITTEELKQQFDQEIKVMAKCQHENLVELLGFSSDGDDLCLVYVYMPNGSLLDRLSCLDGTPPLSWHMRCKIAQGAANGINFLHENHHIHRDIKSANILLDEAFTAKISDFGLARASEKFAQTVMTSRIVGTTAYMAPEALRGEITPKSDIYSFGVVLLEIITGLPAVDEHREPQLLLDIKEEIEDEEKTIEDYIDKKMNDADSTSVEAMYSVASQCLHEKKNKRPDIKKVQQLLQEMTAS

IC50: 1.8 nM
Structure (SMILES): CNC(=O)c1nc(-c2cnc(Nc3ccc4ncsc4c3)cc2NC(C)C)sc1C [Example 27, 2-(6-(benzo[d]thiazol-6-ylamino)-4-(isopropylamino)pyridin-3-yl)-N,5-dimethylthiazole-4-carboxamide]
